Results reported in patent US20250179022A1, “COMPOUND USED AS TYK2 INHIBITOR, PREPARATION METHOD THEREFOR, AND PHARMACEUTICAL USE THEREOF” (SHANGHAI ZHIGEN PHARMACEUTICAL & TECHNOLOGY CO. LTD., priority 2022, published 2025).

How the values were obtained:
TYK2 = biological target: T1, TYK2 (Homo sapiens, UniProt P29597, E957D); assay: TYK2 kinase activity inhibition assay (Ba/F3-FL-TYK2-E957D cell proliferation, CellTiter-Glo); assay type: cell-based; conditions: 72 h
T1 construct: host or cells: Ba/F3 (murine B lymphocytes)
T1 sequence (P29597 whole entry E957D): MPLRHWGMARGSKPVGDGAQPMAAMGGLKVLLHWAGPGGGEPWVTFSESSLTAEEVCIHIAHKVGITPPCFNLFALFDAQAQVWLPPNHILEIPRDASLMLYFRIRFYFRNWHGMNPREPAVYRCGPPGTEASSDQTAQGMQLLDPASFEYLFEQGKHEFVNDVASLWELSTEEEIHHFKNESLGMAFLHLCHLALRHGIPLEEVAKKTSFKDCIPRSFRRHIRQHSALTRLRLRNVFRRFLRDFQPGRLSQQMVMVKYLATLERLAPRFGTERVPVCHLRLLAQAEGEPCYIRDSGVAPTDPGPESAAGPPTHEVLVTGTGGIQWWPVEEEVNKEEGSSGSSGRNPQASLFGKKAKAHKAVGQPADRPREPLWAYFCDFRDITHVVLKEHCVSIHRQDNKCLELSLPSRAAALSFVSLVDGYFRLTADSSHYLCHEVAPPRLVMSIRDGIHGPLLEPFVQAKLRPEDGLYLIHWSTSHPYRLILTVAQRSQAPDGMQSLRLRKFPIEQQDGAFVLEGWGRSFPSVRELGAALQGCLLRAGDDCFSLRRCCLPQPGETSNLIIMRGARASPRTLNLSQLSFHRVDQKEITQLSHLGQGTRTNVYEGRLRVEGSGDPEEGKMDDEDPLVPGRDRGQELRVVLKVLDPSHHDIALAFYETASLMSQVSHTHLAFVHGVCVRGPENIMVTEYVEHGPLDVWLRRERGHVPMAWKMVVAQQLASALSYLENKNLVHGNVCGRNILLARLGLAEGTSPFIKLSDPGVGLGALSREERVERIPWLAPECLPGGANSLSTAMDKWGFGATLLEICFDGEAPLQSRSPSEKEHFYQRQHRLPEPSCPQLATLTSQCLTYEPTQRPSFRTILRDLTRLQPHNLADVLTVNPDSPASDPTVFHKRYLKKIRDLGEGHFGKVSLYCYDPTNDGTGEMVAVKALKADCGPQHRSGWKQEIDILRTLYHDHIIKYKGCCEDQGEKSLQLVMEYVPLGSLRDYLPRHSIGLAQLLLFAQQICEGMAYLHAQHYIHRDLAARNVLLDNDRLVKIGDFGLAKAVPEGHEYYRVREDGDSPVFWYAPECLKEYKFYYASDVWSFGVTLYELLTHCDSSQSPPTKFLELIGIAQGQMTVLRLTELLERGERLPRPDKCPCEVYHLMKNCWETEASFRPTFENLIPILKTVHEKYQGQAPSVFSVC
Protocol: The TYK2 kinase gene was introduced into wild-type murine-derived B lymphocytes (BaF3) to construct the Ba/F3-FL-TYK2-E957D stable cell line.
In this experiment, the inhibitory effect of the compounds on the proliferation of Ba/F3-FL-TYK2-E957D cells were tested, apoptosis was detected, and the IC50 value was calculated. The inhibitory activity of the compounds against TYK2 kinase was evaluated based on the IC50 value.
The tested compounds, powder and stored at room temperature, were prepared into 10 mM stock solution with DMSO and stored at −20° C. away from light for use.
Compounds were prepared into dilute solutions which was 1000 times of the final concentration. The compound was prepared into 20-times of the final concentration by diluting the compound with culture medium. 2 ul of 1000-times compound was added to per well to 98 ul of culture medium.
Cells (provided by Sundia Pharmaceutical Technology (Shanghai) Co., Ltd.) were resuspended and counted using an automated cell counter. The cell suspension was diluted to the desired density based on BaF3 seeding density of 2000 cells per well. Each well was plated with 95 ul of cells and incubated at 37° C. for stable equilibrium. 5 ul of 20-times compound was added to each well, with the wells to which the same volume of DMSO was added as a control.
The cell plate was equilibrated to room temperature. 40 ul CellTiter-Glo® Reagent was added to each well, shaken for 2 minutes and allowed to stand for 10 minutes. Detected with SpectraMax Paradigm.
• (1) IC50 was calculated using GraphPad Prism 5. • (2) % Inh=(Max signal−Compound signal)/(Max signal−Min signal)×100. • (3) Max signal was the positive control well with only the same volume of DMSO as the compound. • (4) Min signal was the negative control well with only the culture medium.

[1] = test system: IFN-α-induced STAT phosphorylation; assay: IFN-α-induced STAT phosphorylation in human whole blood; assay type: cell-based; conditions: human whole blood, 20 ng/ml IFN-α, pSTAT5 in CD3-positive cells; read-out: IC50, IFN-α inflammatory pathway (IFN-α-induced STAT phosphorylation)
Text: The cytokine receptor attached to TYK2 mediates the signaling of type 1 interferon (IFN-α), which has been identified as the most important inflammatory factor of the autoimmune system. Human whole blood is induced with IFN-α, and TYK2 from lymphocytes in whole blood triggered STAT phosphorylation, which mediated subsequent inflammatory signaling. Therefore, TYK2 inhibitors have an inhibitory effect on IFN-α signaling, and the stronger the TYK2 inhibitory activity, the lower the level of STAT phosphorylation, and the stronger the corresponding anti-inflammatory effect.
In this experiment, the ability of the compounds to inhibit IFN-α-induced STAT phosphorylation in human whole blood were tested, and the IC50 values were calculated. The anti-inflammatory activity of the compounds was evaluated at the tissue level and evaluation of the inhibitory activity of compounds on the IFN-α inflammatory pathway based on the IC50 value.
The tested compound, powder and stored at room temperature, prepared into 10 mM stock solution with DMSO and stored at −80° C. in the refrigerator.
1× Fix/Lysis solution preparation: 5× Fix/Lysis and ddH2O were diluted according to 1:4 and preheated in 37° C. incubator, waiting for use.
Flow cytometric staining buffer preparation: 1 g of bovine serum albumin (BSA) and 1 mL of EDTA (0.5 M) solution were added to 500 mL of phosphate buffer solution (PBS) and stored at 4° C. in the refrigerator.
Compound dilution solution: 0.5 g of bovine serum albumin (BSA) was added to 500 mL of phosphate buffer solution (PBS), and stored at 4° C. in the refrigerator.
50 μg/mL IFN-alpha was diluted to 400 ng/mL with Compound Diluent and set aside.
67.5 μL of human whole blood was added to a 96-well plate using a 300 μL electric volley gun. 3.5 μL of prepared test compound was added, mixed well and placed in the cell culture incubator. After 60 min incubation, 400 ng/mL IFN-α (Biolegend 592702, final concentration 20 ng/ml) was added. The obtained was mixed well and placed in the cell culture incubator to continue incubation for 15 min.
After cytokine stimulation, 5 ul of PE-CD3 (BD 555333) antibody was added to each well, mixed and incubation was continued at 4° C. in the refrigerator. At the end, whole blood was transferred to a 96-well deep-well plate using a volley gun, pre-warmed 1× Fix/Lysis solution was added, and cells were lysed and fixed for 12 minutes at 37° C. in an incubator. After being washed, 400 μL of Perm III solution was added, vortexed and incubated on ice for 30 minutes. Cells were then stained by 100 μL of APC-pSTAT5 (1:100) antibody for 50 min at room temperature. This was followed by flow-through instrumentation. The expression of pSTAT5 was quantified by median fluorescence intensity after gating the CD3-positive signaling cluster.

[2] = In vivo pharmacokinetic experiments in Beagle dogs (oral); conditions: for Cmax / MRT / half-life: male, dog, plasma
Protocol: Experimental Methods: Healthy male Beagle dogs were randomly grouped into 3 […] in each group, and were given the test compounds orally. Before the gavage experiment, the dogs were fasted for 12 h, drank water freely, and were uniformly fed for 4 h after the administration of the drug. 0.083, 0.25, 0.5, 1.0, 2.0, 4.0, 6.0, 8.0, 10 and 24 h after administration; about 600 μL of blood was collected from the forelimb or hindlimb at the above set time points and placed in EDTA-K2 tubes, and the whole blood was collected and stored temporarily in an ice-water bath, and then centrifuged at least 3500 rpm for 10 min within 30 min, and the plasma was separated and frozen in a −70° C. refrigerator for testing.

[3] = In vivo pharmacokinetic experiment in rats (oral); set-up: species or system SD rats; conditions: 20 mg/kg
Protocol: Experimental method: Healthy male SD rats were randomly grouped into 3 rats in each group and given the test compound orally. The rats were fasted for 12 h before the gavage experiment, and drank water freely, and were fed uniformly for 4 h after the administration of the compounds. Before (0 h) and 0.25, 0.5, 1.0, 2.0, 4.0, 6.0, 8.0 and 24 h after the administration of the test compounds, 0.2 mL of blood was collected from the jugular vein at the above set time points and placed in EDTA-K2 tubes, and the whole blood was collected and stored temporarily in an ice-water bath, and then centrifuged at 11,000 rpm for 5 min within 30 min, the plasma was separated, and frozen at −70° C. in a refrigerator for testing.

SMILES: [2H]C([2H])([2H])NC(=O)c1nnc(NC(=O)C2CC2)cc1Nc1ncccc1S(C)(=O)=NC (centres unmarked) [Example 2, 6-(cyclopropylcarboxamido)-4-((3-(N,S-dimethylsulfoximino)pyridin-2-yl)amino)-N-(methyl-d3)pyridazine-3-carboxamide]
- IC50 (TYK2): 2.4 nM

SMILES: CN=S(C)(=O)c1ccc(N)nc1Nc1cc(NC(=O)C2CC2)nnc1C(=O)NC (centres unmarked) [Example 7, 4-((6-amino-3-(N,S-dimethylsulfoximino)pyridin-2-yl)amino)-6-(cyclopropylcarboxamido)-N-methylpyridazine-3-carboxamide]
- IC50 [1]: 22.1 nM

SMILES: CN=S(C)(=O)c1cc(Br)cnc1Nc1cc(NC(=O)C2CC2)nnc1C(=O)NC (centres unmarked) [Example 13, 4-((5-bromo-3-(N,S-dimethylsulfoximino)pyridin-2-yl)amino)-6-(cyclopropylcarboxamido)-N-methylpyridazine-3-carboxamide]
- IC50 (TYK2): 3.9 nM

SMILES: CN=S(C)(=O)c1cc(OC)cnc1Nc1cc(NC(=O)C2CC2)nnc1C(=O)NC (centres unmarked) [Example 14, 6-(cyclopropylamido)-4-((3-(N,S-dimethylsulfoximino)-5-methoxypyridin-2-yl)amino)-N-methylpyridazine-3-carboxamide]
- IC50 (TYK2): 3.7 nM

SMILES: CN=S(C)(=O)c1cc(C)cnc1Nc1cc(NC(=O)C2CC2)nnc1C(=O)NC (centres unmarked) [Example 15, 6-(cyclopropylcarboxamido)-4-((3-(N,S-dimethylsulfoximino)-5-methylpyridin-2-yl)amino)-N-methylpyridazine-3-carboxamide]
- IC50 [1]: 18 nM

SMILES: CN=S(C)(=O)c1cc(OCCCOC)cnc1Nc1cc(NC(=O)C2CC2)nnc1C(=O)NC (centres unmarked) [Example 16, 6-(cyclopropylcarboxamido)-4-((3-(N,S-dimethylsulfoximino)-5-(3-methoxypropoxy)pyridin-2-yl)amino)-N-methylpyridazine-3-carboxamide]
- IC50 (TYK2): 3.5 nM

SMILES: [2H]C([2H])([2H])NC(=O)c1nnc(NC(=O)C2CC2)cc1Nc1nc(N)c(Br)cc1[S@@](C)(=O)=NC [Example 30, (R)-4-((6-amino-5-bromo-3-(N,S-dimethylsulfoximino)pyridin-2-yl)amino)-6-(cyclopropylformyl)-N-(methyl-d3)pyridazine-3-carboxamide]
- AUC ([2]; 2 mg/kg): 8454 ngh/mL
- Cmax ([2]; 2 mg/kg): 625 ng/mL
- MRT ([2]; 2 mg/kg): 11.8 h
- half-life ([2]; 2 mg/kg): 8.61 h

SMILES: CN=S(C)(=O)c1cc2cc[nH]c2nc1Nc1cc(NC(=O)C2CC2)nnc1C(=O)NC (centres unmarked) [Example 31, 6-(cyclopropylcarboxamido)-4-((5-(N,S-dimethylsulfoximino)-1H-pyrrolo[2,3-b]pyridin-6-yl)amino)-N-methylpyridazine-3-carboxamide]
- IC50 (TYK2): 1.1 nM

SMILES: CN=S(C)(=O)c1cc2c(Cl)c(Cl)[nH]c2nc1Nc1cc(NC(=O)C2CC2)nnc1C(=O)NC (centres unmarked) [Example 33, 6-(cyclopropylamido)-4-((2,3-dichloro-5-(N,S-dimethylsulfoximino)-1H-pyrrolo[2,3-b]pyridin-6-yl)amino)-N-methylpyridazine-3-carboxamide]
- IC50 (TYK2): 1.2 nM

SMILES: [2H]C([2H])([2H])N=[S@](C)(=O)c1cc(Cl)c(N)nc1Nc1cc(NC(=O)C2CC2)nnc1C(=O)NC([2H])([2H])[2H] [Example 40, (R)-4-((6-amino-5-chloro-3-(S-methyl-N-(methyl-d3)sulfonylimino)pyridin-2-yl)amino)-6-(cyclopropylcarboxamide)-N-(methyl-d3)pyridazine-3-carboxamide]
- AUC ([2]; 10 mg/kg): 79882 ngh/mL
- F ([2]; 10 mg/kg): 136.6%
- Cmax ([2]; 10 mg/kg): 4850 ng/mL
- MRT ([2]; 10 mg/kg): 12.7 h
- half-life ([2]; 10 mg/kg): 9.28 h
- IC50 (TYK2): 0.4 nM
- AUC [3]: 22029 ngh/mL
- F [3]: 109%
- Cmax ([3]; male, SD, rat, plasma): 2950 ng/mL
- MRT ([3]; male, SD, rat, plasma): 4.7 h
- half-life ([3]; male, SD, rat, plasma): 2.65 h

SMILES: [2H]C([2H])([2H])N=[S@](C)(=O)c1cc(Br)c(N)nc1Nc1cc(NC(=O)C2CC2)nnc1C(=O)NC([2H])([2H])[2H] [Example 41, (R)-4-((6-amino-5-bromo-3-(S-methyl-N-(methyl-d3)sulfonylimino)pyridin-2-yl)amino)-6-(cyclopropylcarboxamide)-N-(methyl-d3)pyridazine-3-carboxamide]
- IC50 (TYK2): 0.4 nM

SMILES: [2H]C([2H])([2H])N=[S@](C)(=O)c1cc(I)c(N)nc1Nc1cc(NC(=O)C2CC2)nnc1C(=O)NC([2H])([2H])[2H] [Example 42, (R)-4-((6-amino-5-iodo-3-(S-methyl-N-(methyl-d3)sulfonylimino)pyridin-2-yl)amino)-6-(cyclopropylcarboxamide)-N-(methyl-d3)pyridazine-3-carboxamide]
- IC50 (TYK2): 0.4 nM

SMILES: [2H]C([2H])([2H])N=[S@](C)(=O)c1cc(C2CC2)c(N)nc1Nc1cc(NC(=O)C2CC2)nnc1C(=O)NC([2H])([2H])[2H] [Example 43, (R)-4-((6-amino-5-cyclopropyl-3-(S-methyl-N-(methyl-d3)sulfonylimino)pyridin-2-yl)amino)-6-(cyclopropylcarboxamide)-N-(methyl-d3)pyridazine-3-carboxamide]
- IC50 (TYK2): 1.1 nM

SMILES: [2H]C([2H])([2H])N=[S@](C)(=O)c1cc(C=C)c(N)nc1Nc1cc(NC(=O)C2CC2)nnc1C(=O)NC([2H])([2H])[2H] [Example 44, (R)-4-((6-amino-3-(S-methyl-N-(methyl-d3)sulfonylimino)-5-vinylpyridin-2-yl)amino)-6-(cyclopropylcarboxamide)-N-(methyl-d3)pyridazine-3-carboxamide]
- IC50 (TYK2): 0.3 nM

SMILES: [2H]C([2H])([2H])N=[S@](C)(=O)c1cc(C#CC)c(N)nc1Nc1cc(NC(=O)C2CC2)nnc1C(=O)NC([2H])([2H])[2H] [Example 45, (R)-4-((6-amino-3-(S-methyl-N-(methyl-d3)sulfonylimino)-5-(propynyl-1-yl)pyridin-2-yl)amino)-6-(cyclopropylcarboxamide)-N-(methyl-d3)pyridazine-3-carboxamide]
- IC50 (TYK2): 0.1 nM

SMILES: [2H]C([2H])([2H])N=[S@](C)(=O)c1cc(C#CC2CC2)c(N)nc1Nc1cc(NC(=O)C2CC2)nnc1C(=O)NC([2H])([2H])[2H] [Example 46]
- IC50 (TYK2): 0.1 nM
